Series [1] has as its system HL-60. The series can be described thus: Antiproliferative activity against human HL60 cells assessed as reduction in cell viability by MTT assay. In kind it is functional, cell-based.
Series [2] deals with BXPC-3. The series can be described thus: Antiproliferative activity against human BxPC3 cells assessed as reduction in cell viability at 2 uM by MTT assay relative to control. In kind it is functional. The note with it: for inhibition at 2 µM: Homo sapiens, BXPC-3. (In general: Formazan colour is commonly taken as a measure of viable cells.)
In series [3] the target is T1, Bromodomain-containing protein 4 (Homo sapiens, UniProt O60885). The experiment in a line: Inhibition of BRD4 bromodomain1 (unknown origin) using peptide H4 as substrate incubated for 15 mins followed by substrate addition and measured after 1 hr by alphascreen assay. Background: In Alpha technology, singlet oxygen from a donor bead excites a nearby acceptor bead.

The test system of series [4] is Raji. The experiment in a line: Antiproliferative activity against human Raji cells assessed as reduction in cell viability at 2 uM by MTT assay relative to control. It is filed as functional. The note with it: for inhibition at 2 µM: Homo sapiens, Raji.
In series [5] the target is T1, Bromodomain-containing protein 4. The series can be described thus: Inhibition of BRD4 bromodomain2 (unknown origin) using peptide H4 as substrate incubated for 15 mins followed by substrate addition and measured after 1 hr by alphascreen assay.
Series [6] is described as follows: Metabolic stability in rat liver microsomes assessed as residue remaining at 10 uM incubated for 20 and 40 mins. It is filed as ADME, Microsome. The note with it: read-out: Stability.
A short description of series [7]: Metabolic stability in mouse liver microsomes assessed as residue remaining at 10 uM incubated for 20 and 40 mins. It is filed as ADME, Microsome. The note with it: read-out: Stability. For orientation: Microsomes from liver hold many membrane-bound enzymes, among them those of drug oxidation.
Series [8] can be described thus: Metabolic stability in human liver microsomes assessed as residue remaining at 10 uM incubated for 20 and 40 mins. It is filed as ADME, Microsome. The note with it: read-out: Stability.
The test system of series [9] is BXPC-3. The experiment in a line: Antitumor activity against human BxPC3 cells xenografted in BALB/c SCID mouse assessed as reduction in tumor growth inhibition at 50 mg/kg, ip measured on day 14 relative to control. In kind it is functional. The note with it: BXPC-3, ip, 336 h, read-out: TGI.
Series [10] in a line: Toxicity in BALB/c SCID mouse assessed as reduction in body weight at 5 and 50 mg/kg, ip measured on day 14. In kind it is organism-based. The note with it: in vivo.
Series [11] concerns Mus musculus. The series can be described thus: Down regulation of c-Myc in BALB/c SCID mouse xenogrfted with human BxPC3 cells at 50 mg/kg, ip measured on day 14 by immunohistochemical analysis. It is filed as functional, organism-based.
Series [12] has as its system Mus musculus. The experiment in a line: Upregulation of […] in BALB/c SCID mouse xenogrfted with human BxPC3 cells at 50 mg/kg, ip measured on day 14 by immunohistochemical analysis. It is filed as functional, organism-based.
In series [13] the test system is BXPC-3. The experiment in a line: Antitumor activity against human BxPC3 cells xenografted in BALB/c SCID mouse assessed as suppression of cell proliferation at 50 mg/kg, ip measured on day 14 by Ki-67 staining based assay. In kind it is functional, organism-based.
Series [14] can be described thus: Drug localization in nuclei of human BxPC3 cells at 2 uM incubated for 0.5 hrs by Hoechst 33342 staining based microscopic analysis. It is filed as ADME, cell-based. The note with it: bxpc-3, 0.5 h.
For series [15], the system named is BXPC-3. The series can be described thus: Inhibition of colony formation in human BxPC3 cells at 2 uM relative to control. In kind it is functional.
In series [16] the test system is BXPC-3. The series can be described thus: Antitumor activity against human BxPC3 cells xenografted in BALB/c SCID mouse assessed as reduction in tumor growth inhibition at 5 mg/kg, ip measured on day 14 relative to control. In kind it is functional. The note with it: BXPC-3, ip, 336 h, read-out: TGI.
Series [17] concerns BXPC-3. The experiment in a line: Antitumor activity against human BxPC3 cells xenografted in BALB/c SCID mouse assessed as reduction in tumor growth inhibition at 30 mg/kg, ip bid measured on day 14 relative to control. In kind it is functional. The note with it: BXPC-3, ip, 336 h, read-out: TGI.

The structures appear in SMILES notation. Activity calls are given as the source filed them. The calls are words filed in the database; no cut-off is given here.

Consider 16 molecules from ChEMBL document CHEMBL4312044, “Pharmacokinetics-Driven Optimization of 7-Methylimidazo[1,5-a]pyrazin-8(7H)-one as Novel BRD4 Inhibitors” (ACS Med Chem Lett, 2019).

What is called IC50 is the point on the concentration scale where inhibition reaches its midpoint. The term inhibition denotes the drop in the measured response relative to a control, in per cent.

With `CCS(=O)(=O)Nc1ccc(Oc2ccc(C(C)C)cc2)c(-c2cn(C)c(=O)c3cncn23)c1`, the IC50 in series [1] stood at 110 nM; in [3], 49 nM; in series [5], 36 nM. Also, the inhibition at 2 µM in series [2] is 35.4%; in series [4], 50.4%. The remaining at 40 min, 10 µM in series [6] came to 3.9%; in [7], 17.2%; in series [8], 13.1%.

In the case of `Cn1cc(-c2cc(NS(C)(=O)=O)ccc2Oc2cccc(Br)c2)n2cncc2c1=O`, the 50% inhibitory concentration (IC50) in series [1] amounted to 450 nM; in series [3], 57 nM; in series [5] it was 61 nM. The results for the inhibition at 2 µM in series [2] and in series [4] were 36.1% and 29.4%, respectively. Besides, the remaining at 40 min, 10 µM in series [6] was 34.9%; in series [7], 67.2%; in series [8] it was 45.9%.

With `CCS(=O)(=O)Nc1ccc(Oc2ccc(F)cc2)c(-c2cn(C)c(=O)c3cncn23)c1`, the inhibition in vivo at 50 mg/kg in series [9] was found to be 65%. Also, the values for the IC50 in [1], in series [3] and in [5] were 45 nM, 30 nM and 29 nM, respectively. Moreover, the Activity entry in [10] is recorded as “Non-Toxic”. The inhibition at 2 µM in [2] is 38.4%; in series [4], 39.5%; in series [15], above 50%. The outcome in [11], in series [12] and in series [13] was Active. Further, in series [14], the Drug uptake result is listed as “Active”. In addition, the remaining at 40 min, 10 µM in series [6] stood at 76.2%; in series [7], 65.6%; in series [8], 95.2%. For the same molecule, the inhibition in vivo at 5 mg/kg in series [16] was determined as 22%.

With `CCS(=O)(=O)Nc1ccc(Oc2cc(C)ccc2F)c(-c2cn(C)c(=O)c3cncn23)c1`, the IC50 in series [1] was 270 nM; in series [3], 46 nM; in [5] it was 21 nM. The inhibition at 2 µM in [2] is 28.8%; in series [4], 49.9%. Further, the remaining at 40 min, 10 µM in series [6] came to 5.7%; in series [7], 4.6%; in [8] it was 14.1%.

`O=c1[nH]cc(F)c(=O)[nH]1` [FLUOROURACIL]: the inhibition in vivo at 30 mg/kg in series [17] came out at 67%.

As for `Cc1noc(C)c1-c1cccc(Oc2ccc(NS(C)(=O)=O)cc2-c2cn(C)c(=O)c3cncn23)c1`, the results for the IC50 in [1], in series [3] and in series [5] were 1230 nM, 162 nM and 179 nM, respectively. Also, the inhibition at 2 µM is 31.7% in series [2] and 28.9% in series [4].

Turning to `CCS(=O)(=O)Nc1ccc(Oc2cc(F)ccc2C)c(-c2cn(C)c(=O)c3cncn23)c1`, the IC50 in series [1] worked out at 440 nM; in series [3], 22 nM; in series [5] it was 34 nM. Further, the inhibition at 2 µM in series [2] turned out to be 2.9%; in [4] it was 33.8%. In addition, the remaining at 40 min, 10 µM came out at 7.6% in series [6], 11.2% in [7] and 13.2% in series [8].

Turning to `CCS(=O)(=O)Nc1ccc(Oc2cccc(-c3c(C)noc3C)c2)c(-c2cn(C)c(=O)c3cncn23)c1`, the figures for the IC50 in [1], in [3] and in [5] were 530 nM, 92 nM and 81 nM, respectively. Besides, the inhibition at 2 µM worked out at 25.1% in series [2] and 19.7% in series [4].

For the molecule `CCS(=O)(=O)Nc1ccc(Oc2cc(F)c(F)c(F)c2)c(-c2cn(C)c(=O)c3cncn23)c1`, the values for the IC50 in [1], in series [3] and in [5] were 590 nM, 46 nM and 140 nM, respectively. Also, the results for the inhibition at 2 µM in series [2] and in series [4] were 28.7% and 46%, respectively. Moreover, the remaining at 40 min, 10 µM came out at 54.3% in series [6], 36% in [7] and 55.8% in series [8].

In the case of `Cc1sc2c(c1C)C(c1ccc(Cl)cc1)=N[C@@H](CC(=O)OC(C)(C)C)c1nnc(C)n1-2`, the IC50 in [1] was found to be 870 nM. For the same molecule, the “inhibition (INH)” value in series [2] came to 31.1%; in [4], 47.9%.

For the molecule `Cn1cc(-c2cc(NS(C)(=O)=O)ccc2Oc2ccc(Br)cc2)n2cncc2c1=O`, the results for the IC50 in [1], in series [3] and in series [5] were 230 nM, 37 nM and 44 nM, respectively. Also, the inhibition at 2 µM in series [2] was found to be 34.8%; in series [4], 33.1%. For the same molecule, the remaining at 40 min, 10 µM was determined as 54.2% in series [6], 61.2% in [7] and 66.7% in [8].

In the case of `Cc1noc(C)c1-c1ccc(Oc2ccc(NS(C)(=O)=O)cc2-c2cn(C)c(=O)c3cncn23)cc1`, the IC50 in series [1] was determined as 1120 nM; in series [3], 141 nM; in [5], 153 nM. In addition, the inhibition at 2 µM was determined as 26.4% in [2] and 23.7% in series [4].

For `CCS(=O)(=O)Nc1ccc(Oc2ccc(F)cc2F)c(-c2cn(C)c(=O)c3cncn23)c1`, the values for the IC50 in [1], in [3] and in series [5] were 110 nM, 33 nM and 25 nM, respectively. In addition, the results for the inhibition at 2 µM in series [2] and in [4] were 33.2% and 46.2%, respectively. Moreover, the values for the remaining at 40 min, 10 µM in [6], in series [7] and in series [8] were 17.6%, 13.2% and 21.2%, respectively.

On to `CCS(=O)(=O)Nc1ccc(Oc2ccc(F)cc2F)c(-c2cn(C)c(=O)c3[nH]ccc23)c1` [MIVEBRESIB], for which the IC50 came to 120 nM in series [1], 39 nM in [3] and 47 nM in series [5]. Further, the inhibition at 2 µM in series [2] amounted to 42.7%; in series [4], 51.2%. For the same molecule, the remaining at 40 min, 10 µM in series [6] was 69%; in series [7], 60.9%; in series [8], 60.8%.

Consider `Cn1cc(-c2cc(NS(C)(=O)=O)ccc2Oc2ccc(F)cc2)n2cncc2c1=O`, for which the IC50 in [1] turned out to be 370 nM; in [3], 44 nM. Also, the inhibition at 2 µM in series [2] turned out to be 25.3%; in [4], 24.2%. Further, the remaining at 40 min, 10 µM in series [6] was found to be 78%; in series [7] it was 75.9%; in series [8], 100%.

For the molecule `CCS(=O)(=O)Nc1ccc(Oc2ccc(-c3c(C)noc3C)cc2)c(-c2cn(C)c(=O)c3cncn23)c1`, the concentration for half-maximal inhibition (IC50) was 510 nM in series [1], 64 nM in [3] and 50 nM in [5]. The inhibition at 2 µM in [2] was found to be 23.2%; in series [4] it was 22.9%. In addition, the remaining at 40 min, 10 µM in series [6] is 59.1%; in [7], 48.2%; in series [8] it was 54.3%.
